Patent publication US20250296916A1, “BICYCLIC PIPERAZINONES AND THERAPEUTIC USES THEREOF” (Cytokinetics, Inc., priority 2022, published 2025)

system: rabbit skeletal myofibrils (approximately 90% fast fibers); experiment: Activation of fast skeletal myofibrils (PUMA coupled-enzyme ATPase assay); type: biochemical; conditions: concentration at which the compound increased the enzymatic activity by 40%; calcium at pCa25; PM12 buffer pH 6.8
Procedure: Preparation of fast skeletal myofibrils: Rabbit skeletal myofibrils were prepared based upon the method of Herrmann et al. (Biochem. 32 (28): 7255-7263 (1993). Myofibrils were prepared from rabbit psoas muscle purchased from Pel-Freez Biologicals (Arkansas) within 2 days of ordering, stored on ice. Minced muscle was homogenized in 10 volumes of ice-cold “standard” buffer (50 mM Tris, pH 7.4, 0.1 M KOAc, 5 mM KCl, 2 mM dithiothreitol (DTT), 0.2 mM phenylmethylsulfonyl fluoride (PMSF), 10 μM leupeptin, 5 μM pepstatin, and 0.5 mM sodium azide) containing 5 mM ethylenediaminetetraacetic acid (EDTA) and 0.5% Triton X-100 using an Omni-Macro homogenizer. Myofibrils were recovered by low speed centrifugation (3000 rpm for 10 minutes) and washed 2 times in the Triton X-100 containing buffer to ensure removal of cellular membrane. Following the Triton washes, myofibrils were washed 3 times in “standard” buffer containing 2 mM magnesium acetate. A final wash in assay buffer (12 mM piperazine-1,4-bis(2-ethanesulfonic acid) (PIPES), pH 6.8, 60 mM KCl, 1 mM DTT) was performed and brought to 10% sucrose for flash freezing in liquid nitrogen and storage at −80° C.
Activation of Fast Skeletal Myofibrils: Fast fiber activators were identified by measuring the enzymatic activity of muscle myofibril preparations using the proprietary PUMA (trademark) (see, e.g., U.S. Pat. Nos. 6,410,254, 6,743,599, 7,202,051, and 7,378,254) assay system. Myofibril preparations consisted of rabbit skeletal muscle (approximately 90% fast fibers) that had been mechanically homogenized and washed with a detergent (Triton X-100) to remove cellular membranes. This preparation retained all of the sarcomeric components in a native conformation and the enzymatic activity was still regulated by calcium. Compounds were tested using a myofibril suspension and a level of calcium sufficient to increase enzymatic activity of the myofibrils to 25% of their maximal rate (termed pCa25). Enzymatic activity was tracked via a pyruvate kinase and lactate dehydrogenase-coupled enzyme system. This assay regenerates myosin-produced ADP into ATP by oxidizing NADH, producing an absorbance change at 340 nm. The buffering system was 12 mM PIPES, 2 mM MgCl2, 1 mM DTT at pH 6.8 (PM12 buffer). […] In Table 3, “Example Compound” refers to the compound labeled with the same number in Table 2.

| SMILES | AC1.4 |
| --- | --- |
| CCC[C@H]1C(=O)Nc2ccc(Cl)cc2N1C(=O)c1ccc(Cl)nc1 [Compound 2, (S)-6-chloro-4-(6-chloronicotinoyl)-3-propyl-3,4-dihydroquinoxalin-2(1H)-one] | 0.71 µM |
| CCC[C@H]1C(=O)Nc2cccc(Br)c2N1C(=O)c1ccc(Cl)nc1 [Compound 4, (S)-5-bromo-4-(6-chloronicotinoyl)-3-propyl-3,4-dihydroquinoxalin-2(1H)-one] | 0.72 µM |
| CCC[C@H]1C(=O)Nc2cccc(C3CC3)c2N1C(=O)c1ccc(C)nc1 [Compound 7, (S)-5-Cyclopropyl-4-(6-methylnicotinoyl)-3-propyl-3,4-dihydroquinoxalin-2(1H)-one] | 0.96 µM |
| CCC[C@H]1C(=O)Nc2ccccc2N1C(=O)Nc1ccc(C)nc1 [Compound 8, (S)-N-(6-methylpyridin-3-yl)-3-oxo-2-propyl-3,4-dihydroquinoxaline-1(2H)-carboxamide] | 2.73 µM |
| CCC[C@H]1C(=O)Nc2ccccc2N1C(=O)c1ccc[nH]1 [Compound 9, (S)-3-propyl-4-(1H-pyrrole-2-carbonyl)-3,4-dihydroquinoxalin-2(1H)-one] | 0.74 µM |
| CCC[C@H]1C(=O)Nc2ccccc2N1C(=O)c1ccccc1 [Compound 10, (S)-4-benzoyl-3-propyl-3,4-dihydroquinoxalin-2(1H)-one] | 0.33 µM |
| CCC[C@H]1C(=O)Nc2ccccc2N1C(=O)c1ccncc1 [Compound 11, (S)-4-isonicotinoyl-3-propyl-3,4-dihydroquinoxalin-2(1H)-one] | 0.97 µM |
| CCC[C@H]1C(=O)Nc2ccccc2N1C(=O)c1conc1C [Compound 14, (S)-4-(3-methylisoxazole-4-carbonyl)-3-propyl-3,4-dihydroquinoxalin-2(1H)-one] | 1.66 µM |
| CCC[C@H]1C(=O)Nc2ccccc2N1C(=O)c1cccs1 [Compound 15, (S)-3-propyl-4-(thiophene-2-carbonyl)-3,4-dihydroquinoxalin-2(1H)-one] | 0.17 µM |
| CCC[C@H]1C(=O)Nc2ccccc2N1C(=O)c1cncc(C)c1 [Compound 16, (S)-4-(5-methylnicotinoyl)-3-propyl-3,4-dihydroquinoxalin-2(1H)-one] | 1.41 µM |
| CCC[C@H]1C(=O)Nc2ccccc2N1C(=O)c1cccc(F)c1 [Compound 17, (S)-4-(3-fluorobenzoyl)-3-propyl-3,4-dihydroquinoxalin-2(1H)-one] | 0.17 µM |
| CCC[C@H]1C(=O)Nc2ccccc2N1C(=O)c1cncc(F)c1 [Compound 18, (S)-4-(5-fluoronicotinoyl)-3-propyl-3,4-dihydroquinoxalin-2(1H)-one] | 2.97 µM |
| CCC[C@H]1C(=O)Nc2ccccc2N1C(=O)CCc1ccccc1 [Compound 19, (S)-4-(3-phenylpropanoyl)-3-propyl-3,4-dihydroquinoxalin-2(1H)-one] | 1.46 µM |
| CCC[C@H]1C(=O)Nc2ccccc2N1C(=O)c1cncc(Cl)c1 [Compound 20, (S)-4-(5-chloronicotinoyl)-3-propyl-3,4-dihydroquinoxalin-2(1H)-one] | 1.52 µM |
| CCC[C@H]1C(=O)Nc2ccccc2N1C(=O)c1ccc(F)c(F)c1 [Compound 21, (S)-4-(3,4-difluorobenzoyl)-3-propyl-3,4-dihydroquinoxalin-2(1H)-one] | 0.07 µM |
| CCC[C@H]1C(=O)Nc2ccccc2N1C(=O)c1ccc(-n2cccc2)nc1 [Compound 23, (S)-4-(6-(1H-pyrrol-1-yl)nicotinoyl)-3-propyl-3,4-dihydroquinoxalin-2(1H)-one] | 1.33 µM |
| CCC[C@H]1C(=O)Nc2ccccc2N1C(=O)c1cnc2[nH]ccc2c1 [Compound 26, (S)-3-propyl-4-(1H-pyrrolo[2,3-b]pyridine-5-carbonyl)-3,4-dihydroquinoxalin-2(1H)-one] | 0.56 µM |
| CCC[C@H]1C(=O)Nc2ccccc2N1C(=O)c1ccc(N2CCCCC2)nc1 [Compound 29, (S)-4-(6-(piperidin-1-yl)nicotinoyl)-3-propyl-3,4-dihydroquinoxalin-2(1H)-one] | 2.7 µM |
| CCC[C@H]1C(=O)Nc2ccccc2N1C(=O)c1cnn(CC)c1 [Compound 30, (S)-4-(1-ethyl-1H-pyrazole-4-carbonyl)-3-propyl-3,4-dihydroquinoxalin-2(1H)-one] | 0.42 µM |
| CCC[C@H]1C(=O)Nc2ccccc2N1C(=O)c1cnn(CC2CC2)c1 [Compound 31, (S)-4-(1-(cyclopropylmethyl)-1H-pyrazole-4-carbonyl)-3-propyl-3,4-dihydroquinoxalin-2(1H)-one] | 0.41 µM |
| CCC[C@H]1C(=O)Nc2ccccc2N1C(=O)c1cnn(C2CCC2)c1 [Compound 32, (S)-4-(1-cyclobutyl-1H-pyrazole-4-carbonyl)-3-propyl-3,4-dihydroquinoxalin-2(1H)-one] | 0.71 µM |
| CCC[C@H]1C(=O)Nc2ccccc2N1C(=O)c1ccc(NCC(F)(F)F)nc1 [Compound 34, (S)-3-propyl-4-(6-((2,2,2-trifluoroethyl)amino)nicotinoyl)-3,4-dihydroquinoxalin-2(1H)-one] | 2.59 µM |
| CCC[C@H]1C(=O)Nc2ccccc2N1C(=O)c1ccc(N2CCCCCC2)nc1 [Compound 35, (S)-4-(6-(azepan-1-yl)nicotinoyl)-3-propyl-3,4-dihydroquinoxalin-2(1H)-one] | 1.32 µM |
| CCC[C@H]1C(=O)Nc2ccccc2N1C(=O)c1ccc(NCc2ccccc2)nc1 [Compound 36, (S)-4-(6-(benzylamino)nicotinoyl)-3-propyl-3,4-dihydroquinoxalin-2(1H)-one] | 0.65 µM |

The remaining lines, values ahead:

| AC1.4 | SMILES |
| --- | --- |
| 0.45 µM | CCCC1C(=O)Nc2ccccc2N1C(=O)c1ccc(Cl)nc1 (stereo not shown) [Compound 1, 4-(6-chloronicotinoyl)-3-propyl-3,4-dihydroquinoxalin-2(1H)-one] |
| 0.77 µM | CCC[C@H]1C(=O)Nc2ccccc2N1C(=O)c1ccc(C)nc1 [Compound 3, (S)-4-(6-methylnicotinoyl)-3-propyl-3,4-dihydroquinoxalin-2(1H)-one] |
| 0.38 µM | CCC[C@H]1C(=O)Nc2ccccc2N1C(=O)c1ccc(Cl)nc1 [Compound 5, (S)-4-(6-chloronicotinoyl)-3-propyl-3,4-dihydroquinoxalin-2(1H)-one] |
| 2.19 µM | CCC[C@H]1C(=O)Nc2ccccc2N1C(=O)c1ccc(F)nc1 [Compound 6, (S)-4-(6-fluoronicotinoyl)-3-propyl-3,4-dihydroquinoxalin-2(1H)-one] |
| 1.55 µM | CCC[C@H]1C(=O)Nc2ccccc2N1C(=O)c1cccnc1 [Compound 12, (S)-4-nicotinoyl-3-propyl-3,4-dihydroquinoxalin-2(1H)-one] |
| 2.76 µM | CCC[C@H]1C(=O)Nc2ccccc2N1C(=O)c1ccc(NC(C)=O)nc1 [Compound 22, (S)-N-(5-(3-oxo-2-propyl-1,2,3,4-tetrahydroquinoxaline-1-carbonyl)pyridin-2-yl)acetamide] |
| 0.4 µM | CCC[C@H]1C(=O)Nc2ccccc2N1C(=O)c1ccc(OC(F)F)nc1 [Compound 24, (S)-4-(6-(difluoromethoxy)nicotinoyl)-3-propyl-3,4-dihydroquinoxalin-2(1H)-one] |
| 2.34 µM | CCC[C@H]1C(=O)Nc2ccccc2N1C(=O)c1ccc(OC(F)(F)F)nc1 [Compound 25, (S)-3-propyl-4-(6-(trifluoromethoxy)nicotinoyl)-3,4-dihydroquinoxalin-2(1H)-one] |
| 0.76 µM | CCC[C@H]1C(=O)Nc2ccccc2N1C(=O)c1ccc(N)nc1 [Compound 27, (S)-4-(6-aminonicotinoyl)-3-propyl-3,4-dihydroquinoxalin-2(1H)-one] |
| 1.42 µM | CCC[C@H]1C(=O)Nc2ccccc2N1C(=O)c1ccc(N(C)C)nc1 [Compound 28, (S)-4-(6-(dimethylamino)nicotinoyl)-3-propyl-3,4-dihydroquinoxalin-2(1H)-one] |
| 0.95 µM | CCC[C@H]1C(=O)Nc2ccccc2N1C(=O)c1ccc(N(C)CC)nc1 [Compound 33, (S)-4-(6-(ethyl(methyl)amino)nicotinoyl)-3-propyl-3,4-dihydroquinoxalin-2(1H)-one] |
| 0.58 µM | CCC[C@H]1C(=O)Nc2ccccc2N1C(=O)c1ccc(N(C)C2CC2)nc1 [Compound 37, (S)-4-(6-(cyclopropyl(methyl)amino)nicotinoyl)-3-propyl-3,4-dihydroquinoxalin-2(1H)-one] |
| 1.58 µM | CCC[C@H]1C(=O)Nc2ccccc2N1C(=O)c1ccc(N2CC(F)C2)nc1 [Compound 38, (S)-4-(6-(3-fluoroazetidin-1-yl)nicotinoyl)-3-propyl-3,4-dihydroquinoxalin-2(1H)-one] |
